Measured values reported in US9249125B2, “Pyrazole derivatives as p38 MAP inhibitors” (RESPIVERT LIMITED, priority 2012, dated 2016).

Columns and labels:
[1] = tested on: d-U937 cells; assay: Cell viability: MTT assay; type: cell-based, human; conditions: 1 μg/mL
In short: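 MTT read-out (1 h, absorbance 550 nm) on d-U937 cells after pre-incubation with 1 or 10 μg/mL compound under two regimes: 4 h, 5% FCS, or 24 h, 10% FCS RPMI1640. Values are percent loss of viability relative to vehicle (0.5% DMSO), so increases are reported as negative.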

[2] = biological target: T1, p38 MAPKα (Homo sapiens (Human), UniProt Q16539); assay: p38 MAPKα enzyme inhibition (FRET, Z-LYTE); type: biochemical
T1 sequence (Q16539 whole entry): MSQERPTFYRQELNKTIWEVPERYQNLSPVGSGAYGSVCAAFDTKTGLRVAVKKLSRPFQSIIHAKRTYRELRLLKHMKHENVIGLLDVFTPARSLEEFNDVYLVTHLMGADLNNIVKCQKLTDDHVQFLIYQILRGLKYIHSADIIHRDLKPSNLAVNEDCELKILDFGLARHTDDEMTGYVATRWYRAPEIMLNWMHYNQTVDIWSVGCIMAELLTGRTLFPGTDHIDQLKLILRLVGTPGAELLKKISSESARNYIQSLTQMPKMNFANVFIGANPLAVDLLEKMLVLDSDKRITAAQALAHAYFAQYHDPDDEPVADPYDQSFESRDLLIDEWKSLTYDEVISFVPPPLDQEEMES

[3] = tested on: LPS-induced TNFα release in d-U937 cells; assay: LPS-induced TNFα release in d-U937 cells; type: cell-based; conditions: Homo sapiens, dU937, relative to 10 μg/mL BIRB796, read-out: LPS Induced Release of Cytokine in d-937 Cells TNFα REC50
In short: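 Human monocytic U937 cells were differentiated to macrophage-type cells with PMA (100 ng/mL) for 48 to 72 hr, pre-treated with test compound for 2 hr, then stimulated 4 hr with E. coli O111:B4 LPS (0.1 μg/mL). Supernatant TNFα and IL-8 were measured by sandwich ELISA; REC50 came from concentration-response curves.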

[4] = biological target: cSrc (Homo sapiens (Human), UniProt P12931); assay: c-Src enzyme inhibition (FRET, Z-LYTE); type: biochemical
Sequence of cSrc (P12931 whole entry, looked up): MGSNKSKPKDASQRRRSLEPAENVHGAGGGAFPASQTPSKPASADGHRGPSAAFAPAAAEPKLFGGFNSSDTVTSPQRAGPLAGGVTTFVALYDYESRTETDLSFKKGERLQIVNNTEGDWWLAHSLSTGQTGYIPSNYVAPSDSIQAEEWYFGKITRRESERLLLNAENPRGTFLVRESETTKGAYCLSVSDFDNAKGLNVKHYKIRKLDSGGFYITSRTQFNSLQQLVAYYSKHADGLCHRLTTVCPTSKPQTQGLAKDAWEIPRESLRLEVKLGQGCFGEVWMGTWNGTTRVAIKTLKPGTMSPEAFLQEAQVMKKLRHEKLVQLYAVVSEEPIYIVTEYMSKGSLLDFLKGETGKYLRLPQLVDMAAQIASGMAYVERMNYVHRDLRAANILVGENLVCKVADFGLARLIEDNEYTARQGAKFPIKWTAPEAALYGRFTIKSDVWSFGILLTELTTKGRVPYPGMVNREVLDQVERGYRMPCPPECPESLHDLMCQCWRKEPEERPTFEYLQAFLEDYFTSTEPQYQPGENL
In short: (§1)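 Z-LYTE FRET kinase assay: enzyme (3000 or 2000 ng/mL stock, respectively) preincubated 2 h at RT with compound (4–0.004 μg/mL stocks), then FRET peptide plus ATP (800 μM stock for c-Src, 60 μM for Syk) added for 1 h. Protease development 1 h; phosphorylation from coumarin/fluorescein emission ratio.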

[5] = biological target: T2, Syk (Homo sapiens (Human), UniProt P43405); assay: Syk enzyme inhibition (FRET, Z-LYTE); type: biochemical
In short: as §1

[6] = biological target: T3, GSK3α (Homo sapiens (Human), UniProt P49840); assay: GSK 3α enzyme inhibition (FRET, Z-LYTE); type: biochemical
T3 sequence (P49840 whole entry): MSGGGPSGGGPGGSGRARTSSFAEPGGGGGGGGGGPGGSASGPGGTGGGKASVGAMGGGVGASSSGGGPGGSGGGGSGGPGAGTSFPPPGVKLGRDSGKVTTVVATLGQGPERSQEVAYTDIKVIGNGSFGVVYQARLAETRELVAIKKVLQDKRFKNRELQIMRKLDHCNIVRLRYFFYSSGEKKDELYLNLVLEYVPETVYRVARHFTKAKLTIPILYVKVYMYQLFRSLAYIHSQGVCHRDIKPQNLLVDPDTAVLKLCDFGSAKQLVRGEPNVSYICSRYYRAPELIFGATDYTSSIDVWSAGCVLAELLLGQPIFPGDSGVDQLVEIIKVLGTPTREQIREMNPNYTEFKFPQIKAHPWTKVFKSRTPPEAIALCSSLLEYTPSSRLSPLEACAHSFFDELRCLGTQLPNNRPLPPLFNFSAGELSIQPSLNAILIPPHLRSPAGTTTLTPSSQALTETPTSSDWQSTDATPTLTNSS
In short: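 Phosphorylation was read as the donor (coumarin) to acceptor (fluorescein) ratio after a 1 hr protease step destroying non-phosphorylated peptide. Before this, compound (4–0.004 μg/mL stocks) sat 2 hr at RT with GSK3α (500 ng/mL stock), followed by 1 hr kinase reaction with 8 μM peptide and 40 μM ATP stocks.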

[7] = tested on: PBMC cells; assay: Cell mitosis assay; type: cell-based, human
Protocol: Peripheral blood mononucleocytes (PBMCs) from healthy subjects are separated from whole blood (Quintiles, London, UK) using a density gradient (Histopaque-1077, Sigma-Aldrich, Poole, UK). The PBMCs (3 million cells per sample) are subsequently treated with 2% PHA (Sigma-Aldrich, Poole, UK) for 48 hr, followed by a 20 hr exposure to varying concentrations of test compounds. At 2 hr before collection, PBMCs are treated with demecolcine (0.1 μg/mL) (Invitrogen, Paisley, UK,) to arrest cells in metaphase. To observe mitotic cells, PBMCs are permeabilised and fixed by adding Intraprep (50 μL) (Beckman Coulter, France), and stained with anti-phospho-histone 3 (0.26 ng/L) (#9701; Cell Signalling, Danvers, Mass.) and propidium iodide (1 mg/mL) (Sigma-Aldrich, Poole, UK,) as previously described (Muehlbauer P. A. and Schuler M. J., Mutation Research, 2003, 537:117-130). Fluorescence is observed using an ATTUNE flow cytometer (Invitrogen, Paisley, UK), gating for lymphocytes.

[8] = tested on: Poly I:C-induced ICAM-1 expression in BEAS2B cells; assay: Poly I:C-induced ICAM-1 expression in BEAS2B cells; type: cell-based; conditions: Homo sapiens, BEAS-2B, read-out: Poly IC induced ICAM1 in BEAS2B IC50
In short: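 Cell-based ELISA read at 450 nm minus 655 nm, divided by crystal violet OD595 to normalize for cell number, gave ICAM-1 levels. Readout was taken 18 hr after poly I:C (1 μg/mL, Oligofectamine) transfection of human bronchial BEAS2B cells pretreated 2 hr with test compound.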

[9] = tested on: LPS-induced IL-8 release in d-U937 cells; assay: LPS-induced IL-8 release in d-U937 cells; type: cell-based; conditions: Homo sapiens, dU937, read-out: LPS Induced Release of Cytokine in d-937 Cells IL-8 IC50
In short: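 Sandwich ELISA of culture supernatant gives TNFα and IL-8 levels after a 4 hr challenge with LPS (0.1 μg/mL, E. coli O111:B4). Before stimulation, macrophage-like U937 cells, obtained by 48–72 hr in PMA at 100 ng/mL, sit with compound for 2 hr. Relative EC50 is derived from concentration-response data.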

[10] = tested on: LPS-induced airways neutrophilia in mice; assay: LPS-induced neutrophil accumulation in mice; type: in vivo; conditions: Test Substance at 0.2 mg/mL, intra tracheal, dosed 8 hr pre-LPS challenge
Protocol: Non-fasted Balb/c mice are dosed by the intra tracheal route with either vehicle, or the test substance at the indicated times (within the range 2-8 hr) before stimulation of the inflammatory response by application of an LPS challenge. At T=0, mice are placed into an exposure chamber and exposed to LPS (7.0 mL, 0.5 mg/mL solution in PBS) for 30 min). After a further 8 hr the animals are anesthetized, their tracheas cannulated and BALF extracted by infusing and then withdrawing from their lungs 1.0 mL of PBS via the tracheal catheter. Total and differential white cell counts in the BALF samples are measured using a Neubaur haemocytometer. Cytospin smears of the BALF samples are prepared by centrifugation at 200 rpm for 5 min at RT and stained using a DiffQuik stain system (Dade Behring). Cells are counted using oil immersion microscopy. Data for neutrophil numbers in BAL are shown as mean±S.E.M. (standard error of the mean). The percentage inhibition of neutrophil accumulation is calculated for each treatment relative to vehicle treatment.

[11] = biological target: B-Raf (Homo sapiens (Human), UniProt P15056); assay: Enzyme binding assay (Kinomescan) B-Raf; conditions: read-out: % Inhibition for kinase binding at 500 nM B-Raf
Sequence of B-Raf (P15056 whole entry): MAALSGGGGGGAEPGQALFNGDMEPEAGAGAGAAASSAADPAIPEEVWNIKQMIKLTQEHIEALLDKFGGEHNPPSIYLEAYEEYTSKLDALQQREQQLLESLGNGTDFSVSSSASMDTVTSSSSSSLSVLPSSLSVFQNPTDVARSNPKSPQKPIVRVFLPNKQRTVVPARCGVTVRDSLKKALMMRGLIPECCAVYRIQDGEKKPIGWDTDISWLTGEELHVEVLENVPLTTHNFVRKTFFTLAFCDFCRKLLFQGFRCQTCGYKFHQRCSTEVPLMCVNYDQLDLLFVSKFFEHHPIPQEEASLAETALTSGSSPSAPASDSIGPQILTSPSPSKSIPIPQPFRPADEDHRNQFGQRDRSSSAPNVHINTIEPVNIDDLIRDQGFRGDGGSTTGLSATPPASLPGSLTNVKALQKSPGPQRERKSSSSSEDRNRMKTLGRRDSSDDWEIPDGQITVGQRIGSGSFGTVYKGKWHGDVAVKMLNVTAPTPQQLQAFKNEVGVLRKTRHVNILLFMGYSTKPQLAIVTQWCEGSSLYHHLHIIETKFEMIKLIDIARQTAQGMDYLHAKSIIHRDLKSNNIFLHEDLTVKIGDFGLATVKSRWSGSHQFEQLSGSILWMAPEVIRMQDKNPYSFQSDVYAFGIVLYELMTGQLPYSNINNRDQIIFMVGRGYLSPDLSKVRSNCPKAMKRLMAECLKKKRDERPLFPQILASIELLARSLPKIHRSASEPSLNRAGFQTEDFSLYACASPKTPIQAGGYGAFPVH
Protocol: (§2) These assays were conducted by DiscoverX (formerly Ambit; San Diego, Calif.). The percentage inhibition produced by incubation with a test compound is calculated relative to the non-inhibited control.

[12] = biological target: T2, Syk; assay: Enzyme binding assay (Kinomescan) Syk; conditions: read-out: % Inhibition for kinase binding at 500 nM Syk
Protocol: (§3) The kinase enzyme binding activities of compounds disclosed herein were determined using a proprietary assay which measures active site-directed competition binding to an immobilized ligand (Fabian, M. A. et al., Nature Biotechnol., 2005, 23:329-336). These assays were conducted by DiscoverX (formerly Ambit; San Diego, Calif.). The percentage inhibition produced by incubation with a test compound is calculated relative to the non-inhibited control.

[13] = biological target: T1, p38 MAPKα; assay: Enzyme binding assay (Kinomescan) p38 MAPKα; conditions: read-out: % Inhibition for kinase binding at 500 nM p38 MAPKα
Protocol: as §3

[14] = biological target: HCK (Homo sapiens (Human), UniProt P08631); assay: Enzyme binding assay (Kinomescan) HCK; conditions: read-out: % Inhibition for kinase binding at 500 nM HCK
Sequence of HCK (P08631 22-526): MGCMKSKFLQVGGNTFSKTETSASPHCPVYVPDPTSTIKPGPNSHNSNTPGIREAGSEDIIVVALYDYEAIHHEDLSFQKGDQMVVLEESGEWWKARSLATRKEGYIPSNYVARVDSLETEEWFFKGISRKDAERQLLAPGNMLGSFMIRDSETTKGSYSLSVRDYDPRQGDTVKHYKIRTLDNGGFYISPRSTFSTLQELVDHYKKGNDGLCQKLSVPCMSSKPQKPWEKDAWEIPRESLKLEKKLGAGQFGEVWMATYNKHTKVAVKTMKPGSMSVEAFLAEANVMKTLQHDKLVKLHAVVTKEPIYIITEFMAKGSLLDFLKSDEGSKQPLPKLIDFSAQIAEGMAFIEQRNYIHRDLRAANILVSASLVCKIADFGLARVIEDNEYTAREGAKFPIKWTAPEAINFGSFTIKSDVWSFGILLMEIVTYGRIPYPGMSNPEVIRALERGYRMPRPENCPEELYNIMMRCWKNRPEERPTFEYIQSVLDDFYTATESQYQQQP
Protocol: as §3

[15] = biological target: T3, GSK3α; assay: Enzyme binding assay (Kinomescan) GSK3α; conditions: read-out: % Inhibition for kinase binding at 500 nM GSK3α
Protocol: as §3

[16] = biological target: p38 MAPKγ (Homo sapiens (Human), UniProt P53778); assay: Enzyme binding assay (Kinomescan) p38 MAPKγ; conditions: read-out: % Inhibition for kinase binding at 500 nM p38 MAPKγ
Sequence of p38 MAPKγ (P53778 whole entry): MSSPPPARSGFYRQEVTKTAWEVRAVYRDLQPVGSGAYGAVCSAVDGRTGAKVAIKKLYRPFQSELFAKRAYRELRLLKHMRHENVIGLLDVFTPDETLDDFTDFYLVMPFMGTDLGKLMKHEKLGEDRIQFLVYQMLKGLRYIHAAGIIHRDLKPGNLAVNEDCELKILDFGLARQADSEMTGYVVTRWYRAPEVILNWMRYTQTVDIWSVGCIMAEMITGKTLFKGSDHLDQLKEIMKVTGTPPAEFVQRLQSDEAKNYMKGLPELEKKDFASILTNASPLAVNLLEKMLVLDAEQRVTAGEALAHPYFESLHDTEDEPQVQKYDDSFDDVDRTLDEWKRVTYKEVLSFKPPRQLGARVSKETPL
Protocol: as §2

Structure (SMILES)	MTT Assay Cell viability at time point in d-U937 cells 4 h [1]	MTT Assay Cell viability at time point in d-U937 cells 24 h [1]	IC50 [2] [nM]	EC50 [3] [nM]	IC50 [4] [nM]	IC50 [5] [nM]	IC50 [6] [nM]	Mitosis Assay % inhibition in PBMC cells at 5 μg/mL [7] [%]	IC50 [8] [nM]	IC50 [9] [nM]	% Inhibition of neutrophil accumulation in BAL [10] [%]	Neutrophil numbers in BAL (+/−SEM) [10]	inhibition at 0.5 µM [11] [%]	inhibition at 0.5 µM [12] [%]	inhibition at 0.5 µM [13] [%]	inhibition at 0.5 µM [14] [%]	inhibition at 0.5 µM [15] [%]	inhibition at 0.5 µM [16] [%]
COc1ccc(-n2nc(C(C)C)cc2NC(=O)Nc2ccc(Oc3ccnc(Nc4cc(C)c5[nH]ncc5c4)n3)c3ccccc23)cc1 [Example 9, 1-(3-Isopropyl-1-(4-methoxyphenyl)-1H-pyrazol-5-yl)-3-(4-((2-((7-methyl-1H-indazol-5-yl)amino)pyrimidin-4-yl)oxy)naphthalen-1-yl)urea]	−ve (−ve and +ve indicate that the value is below and above respectively, the no significant effect threshold, defined as 30% inhibition at 1 μg/mL at the time point indicated.)	−ve (−ve and +ve indicate that the value is below and above respectively, the no significant effect threshold, defined as 30% inhibition at 1 μg/mL at the time point indicated.)	38	1.6	4	7	> 15600	23.7	1.2	3.9								
Cc1ccc(-n2nc(C(C)(C)C)cc2NC(=O)Nc2ccc(Oc3ccnc(Nc4ccc5[nH]nnc5c4)n3)c3ccccc23)cc1 [Example 36, 1-(4-((2-((1H-benzo[d][1,2,3]triazol-5-yl)amino)pyrimidin-4-yl)oxy)naphthalen-1-yl)-3-(3-(tert-butyl)-1-(p-tolyl)-1H-pyrazol-5-yl)urea]	−ve (−ve and +ve indicate that the value is below and above respectively, the no significant effect threshold, defined as 30% inhibition at 1 μg/mL at the time point indicated.)	−ve (−ve and +ve indicate that the value is below and above respectively, the no significant effect threshold, defined as 30% inhibition at 1 μg/mL at the time point indicated.)	92	17.2	14	75	2100	41.2	6.3	2.3								
CC(C)(C)c1cc(NC(=O)Nc2ccc(Oc3cc(Nc4ccc5[nH]ncc5c4)ncn3)c3ccccc23)n(-c2ccc(OCCN3CCOCC3)cc2)n1 [Example 70, 1-(4-((6-((1H-indazol-5-yl)amino)pyrimidin-4-yl)oxy)naphthalen-1-yl)-3-(3-(tert-butyl)-1-(4-(2-morpholinoethoxy)phenyl)-1H-pyrazol-5-yl)urea]	−ve (−ve and +ve indicate that the value is below and above respectively, the no significant effect threshold, defined as 30% inhibition at 1 μg/mL at the time point indicated.)	−ve (−ve and +ve indicate that the value is below and above respectively, the no significant effect threshold, defined as 30% inhibition at 1 μg/mL at the time point indicated.)	33	2.5	13	14	3250	62.4	4.1	2.7								
CC(C)(C)c1cc(NC(=O)Nc2ccc(Oc3ccnc(Nc4ccc5c(c4)NC(=O)C5)n3)c3ccccc23)n(-c2ccc(OCCN3CCOCC3)nc2)n1 [Example 90, 1-(3-(tert-butyl)-1-(6-(2-morpholinoethoxy)pyridin-3-yl)-1H-pyrazol-5-yl)-3-(4-((2-((2-oxoindolin-6-yl)amino)pyrimidin-4-yl)oxy)naphthalen-1-yl)urea]	−ve (−ve and +ve indicate that the value is below and above respectively, the no significant effect threshold, defined as 30% inhibition at 1 μg/mL at the time point indicated.)	−ve (−ve and +ve indicate that the value is below and above respectively, the no significant effect threshold, defined as 30% inhibition at 1 μg/mL at the time point indicated.)	44	1.6	< 1	< 1	267	15.4	14.6	4.1								
COCC(=O)Nc1cc(Oc2ccc(NC(=O)Nc3cc(C(C)(C)C)nn3-c3ccc(C)cc3)c3ccccc23)ccn1 [Reference Compound, N-(4-(4-(3-(3-tert-butyl-1-p-tolyl-1H-pyrazol-5-yl)ureido)naphthalen-1-yloxy)pyridin-2-yl)-2-methoxyacetamide, reference compound]	−ve (−ve and +ve indicate that the value is below and above respectively, the no significant effect threshold, defined as 30% inhibition at 1 μg/mL at the time point indicated.)	+ve (−ve and +ve indicate that the value is below and above respectively, the no significant effect threshold, defined as 30% inhibition at 1 μg/mL at the time point indicated.)		0.13					2.1		60	5.6 ± 0.86 ×10^5/mL	70	95	100	100	84	
CNC(=O)c1cc(Oc2ccc(NC(=O)Nc3ccc(Cl)c(C(F)(F)F)c3)cc2)ccn1 [Sorafenib]														14	77	22	26	28
